# Data from ChEMBL document CHEMBL1152723, “Remarkable enhancement in the DNA-binding ability of C2-fluoro substituted pyrrolo[2,1-c][1,4]benzodiazepines and their anticancer potential” (2009).
# What was measured:
# [1] = tested on: UACC-62; assay: Growth inhibition of human UACC62 cells after 48 hrs by sulforhodamine B protein assay; type: functional; details: UACC-62, 48 h
# [2] = tested on: IGROV-1; assay: Growth inhibition of human IGROV1 cells after 48 hrs by sulforhodamine B protein assay; type: functional; details: IGROV-1, 48 h
# [3] = tested on: OVCAR-3; assay: Growth inhibition of human OVCAR-3 cells after 48 hrs by sulforhodamine B protein assay; type: functional; details: OVCAR-3, 48 h
# [4] = tested on: OVCAR-4; assay: Growth inhibition of human OVCAR4 cells after 48 hrs by sulforhodamine B protein assay; type: functional; details: OVCAR-4, 48 h
# [5] = tested on: OVCAR-5; assay: Growth inhibition of human OVCAR5 cells after 48 hrs by sulforhodamine B protein assay; type: functional; details: OVCAR-5, 48 h
# [6] = tested on: OVCAR-8; assay: Growth inhibition of human OVCAR8 cells after 48 hrs by sulforhodamine B protein assay; type: functional; details: OVCAR-8, 48 h
# [7] = tested on: SK-OV-3; assay: Growth inhibition of human SKOV3 cells after 48 hrs by sulforhodamine B protein assay; type: functional; details: SK-OV-3, 48 h
# [8] = tested on: 786-0; assay: Growth inhibition of human 786-0 cells after 48 hrs by sulforhodamine B protein assay; type: functional; details: 786-0, 48 h
# [9] = tested on: ACHN; assay: Growth inhibition of human ACHN cells after 48 hrs by sulforhodamine B protein assay; type: functional
# [10] = tested on: CAKI-1; assay: Growth inhibition of human Caki1 cells after 48 hrs by sulforhodamine B protein assay; type: functional; details: CAKI-1, 48 h
# [11] = tested on: SN12C; assay: Growth inhibition of human SN12C cells after 48 hrs by sulforhodamine B protein assay; type: functional
# [12] = tested on: TK-10; assay: Growth inhibition of human TK10 cells after 48 hrs by sulforhodamine B protein assay; type: functional; details: TK-10, 48 h
# [13] = tested on: UO-31; assay: Growth inhibition of human UO31 cells after 48 hrs by sulforhodamine B protein assay; type: functional; details: UO-31, 48 h
# [14] = tested on: PC-3; assay: Growth inhibition of human PC3 cells after 48 hrs by sulforhodamine B protein assay; type: functional; details: PC-3, 48 h
# [15] = tested on: DU-145; assay: Growth inhibition of human DU145 cells after 48 hrs by sulforhodamine B protein assay; type: functional; details: DU-145, 48 h
# [16] = tested on: MCF7; assay: Growth inhibition of human MCF7 cells after 48 hrs by sulforhodamine B protein assay; type: functional; details: MCF7, 48 h
# [17] = tested on: MDA-MB-231; assay: Growth inhibition of human MDA-MB-231 cells after 48 hrs by sulforhodamine B protein assay; type: functional; details: MDA-MB-231, 48 h
# [18] = Growth inhibition of human Hs 578T cells after 48 hrs by sulforhodamine B protein assay; type: functional
# [19] = tested on: MDA-MB-435; assay: Growth inhibition of human MDA-MB-435 cells after 48 hrs by sulforhodamine B protein assay; type: functional; details: MDA-MB-435, 48 h
# [20] = tested on: BT-549; assay: Growth inhibition of human BT549 cells after 48 hrs by sulforhodamine B protein assay; type: functional; details: BT-549, 48 h
# [21] = tested on: T47D; assay: Growth inhibition of human T47D cells after 48 hrs by sulforhodamine B protein assay; type: functional
# [22] = tested on: DNA; assay: Binding affinity to calf thymus DNA assessed as change in melting temperature at a compound to DNA molar ratio of 1:5 at pH 7 by thermal denaturation assay; type: nucleic-acid assay; details: Bos taurus
# [23] = molecular target: T1, Type II restriction enzyme BamHI (Bacillus amyloliquefaciens) (UniProt P23940); assay: Inhibition of Bacillus amyloliquefaciens BamH1-mediated pBR322 cleavage after 16 hrs by RED100-restriction endonuclease digestion assay
# T1 sequence (whole entry): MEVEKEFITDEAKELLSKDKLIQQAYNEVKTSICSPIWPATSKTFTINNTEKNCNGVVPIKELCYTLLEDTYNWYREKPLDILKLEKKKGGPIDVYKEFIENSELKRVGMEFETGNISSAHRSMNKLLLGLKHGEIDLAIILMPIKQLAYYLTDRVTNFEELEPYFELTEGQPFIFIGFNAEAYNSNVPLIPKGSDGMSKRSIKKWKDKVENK
# [24] = tested on: CCRF-CEM; assay: Growth inhibition of human CCRF-CEM cells after 48 hrs by sulforhodamine B protein assay; type: functional
# [25] = tested on: HL-60(TB); assay: Growth inhibition of human HL-60(TB) cells after 48 hrs by sulforhodamine B protein assay; type: functional; details: HL-60, 48 h
# [26] = tested on: K562; assay: Growth inhibition of human K562 cells after 48 hrs by sulforhodamine B protein assay; type: functional; details: K562, 48 h
# [27] = tested on: MOLT-4; assay: Growth inhibition of human MOLT4 cells after 48 hrs by sulforhodamine B protein assay; type: functional; details: MOLT-4, 48 h
# [28] = Growth inhibition of human […] cells after 48 hrs by sulforhodamine B protein assay; type: functional
# [29] = tested on: SR; assay: Growth inhibition of human SR cells after 48 hrs by sulforhodamine B protein assay; type: functional
# [30] = tested on: A549; assay: Growth inhibition of human A549 cells after 48 hrs by sulforhodamine B protein assay; type: functional; details: A549, 48 h
# [31] = tested on: EKVX; assay: Growth inhibition of human EKVX cells after 48 hrs by sulforhodamine B protein assay; type: functional
# [32] = tested on: HOP-62; assay: Growth inhibition of human HOP62 cells after 48 hrs by sulforhodamine B protein assay; type: functional; details: HOP-62, 48 h
# [33] = tested on: NCI-H226; assay: Growth inhibition of human NCI-H226 cells after 48 hrs by sulforhodamine B protein assay; type: functional; details: NCI-H226, 48 h
# [34] = tested on: NCI-H23; assay: Growth inhibition of human NCI-H23 cells after 48 hrs by sulforhodamine B protein assay; type: functional; details: NCI-H23, 48 h
# [35] = tested on: NCI-H322M; assay: Growth inhibition of human NCI-H322M cells after 48 hrs by sulforhodamine B protein assay; type: functional
# [36] = tested on: NCI-H460; assay: Growth inhibition of human NCI-H460 cells after 48 hrs by sulforhodamine B protein assay; type: functional; details: NCI-H460, 48 h
# [37] = tested on: NCI-H522; assay: Growth inhibition of human NCI-H522 cells after 48 hrs by sulforhodamine B protein assay; type: functional; details: NCI-H522, 48 h
# [38] = tested on: COLO 205; assay: Growth inhibition of human COLO205 cells after 48 hrs by sulforhodamine B protein assay; type: functional; details: COLO 205, 48 h
# [39] = tested on: HCC 2998; assay: Growth inhibition of human HCC2998 cells after 48 hrs by sulforhodamine B protein assay; type: functional; details: HCC 2998, 48 h
# [40] = tested on: HCT-116; assay: Growth inhibition of human HCT116 cells after 48 hrs by sulforhodamine B protein assay; type: functional; details: HCT-116, 48 h
# [41] = tested on: HCT-15; assay: Growth inhibition of human HCT15 cells after 48 hrs by sulforhodamine B protein assay; type: functional; details: HCT-15, 48 h
# [42] = tested on: HT-29; assay: Growth inhibition of human HT-29 cells after 48 hrs by sulforhodamine B protein assay; type: functional; details: HT-29, 48 h
# [43] = tested on: KM12; assay: Growth inhibition of human KM12 cells after 48 hrs by sulforhodamine B protein assay; type: functional; details: KM12, 48 h
# [44] = tested on: SW-620; assay: Growth inhibition of human SW620 cells after 48 hrs by sulforhodamine B protein assay; type: functional; details: SW-620, 48 h
# [45] = tested on: SF-295; assay: Growth inhibition of human SF295 cells after 48 hrs by sulforhodamine B protein assay; type: functional; details: SF-295, 48 h
# [46] = tested on: SF-539; assay: Growth inhibition of human SF539 cells after 48 hrs by sulforhodamine B protein assay; type: functional; details: SF-539, 48 h
# [47] = tested on: SNB-19; assay: Growth inhibition of human SNB19 cells after 48 hrs by sulforhodamine B protein assay; type: functional; details: SNB-19, 48 h
# [48] = tested on: SNB-75; assay: Growth inhibition of human SNB75 cells after 48 hrs by sulforhodamine B protein assay; type: functional; details: SNB-75, 48 h
# [49] = tested on: U-251; assay: Growth inhibition of human U251 cells after 48 hrs by sulforhodamine B protein assay; type: functional; details: U-251, 48 h
# [50] = tested on: LOX IMVI; assay: Growth inhibition of human LOXIMVI cells after 48 hrs by sulforhodamine B protein assay; type: functional
# [51] = tested on: Malme-3M; assay: Growth inhibition of human MALME-3M cells after 48 hrs by sulforhodamine B protein assay; type: functional
# [52] = tested on: SK-MEL-2; assay: Growth inhibition of human SK-MEL-2 cells after 48 hrs by sulforhodamine B protein assay; type: functional; details: SK-MEL-2, 48 h
# [53] = tested on: SK-MEL-28; assay: Growth inhibition of human SK-MEL-28 cells after 48 hrs by sulforhodamine B protein assay; type: functional; details: SK-MEL-28, 48 h
# [54] = tested on: UACC-257; assay: Growth inhibition of human UACC257 cells after 48 hrs by sulforhodamine B protein assay; type: functional; details: UACC-257, 48 h
# [55] = tested on: A498; assay: Growth inhibition of human A498 cells after 48 hrs by sulforhodamine B protein assay; type: functional; details: A498, 48 h
smiles,measurement,setting,value
COc1cc2c(cc1OCCCOc1cc3c(cc1OC)C(=O)N1CC(F)(F)C[C@H]1C=N3)N=C[C@@H]1CC(F)(F)CN1C2=O,GI50,[1],0.41 µM
same,GI50,[2],0.11 µM
same,GI50,[3],0.94 µM
same,GI50,[4],1.45 µM
same,GI50,[5],0.75 µM
same,GI50,[6],0.42 µM
same,GI50,[7],0.6 µM
same,GI50,[8],< 0.01 µM
same,GI50,[9],0.65 µM
same,GI50,[10],< 0.01 µM
same,GI50,[11],0.17 µM
same,GI50,[12],3.45 µM
same,GI50,[13],1.05 µM
same,GI50,[14],< 0.08 µM
same,GI50,[15],0.37 µM
same,GI50,[16],0.13 µM
same,GI50,[17],0.8 µM
same,GI50,[18],0.17 µM
same,GI50,[19],0.57 µM
same,GI50,[20],0.41 µM
same,GI50,[21],0.24 µM
same,ΔTm,[22],13.1 °C
same,Activity,[23],Dose-dependent effect
same,GI50,[24],0.41 µM
same,GI50,[25],0.25 µM
same,GI50,[26],0.53 µM
same,GI50,[27],0.08 µM
same,GI50,[28],1.67 µM
same,GI50,[29],< 0.06 µM
same,GI50,[30],1.21 µM
same,GI50,[31],1.72 µM
same,GI50,[32],0.1 µM
same,GI50,[33],0.62 µM
same,GI50,[34],0.49 µM
same,GI50,[35],2.19 µM
same,GI50,[36],< 0.08 µM
same,GI50,[37],0.14 µM
same,GI50,[38],0.58 µM
same,GI50,[39],1.03 µM
same,GI50,[40],0.13 µM
same,GI50,[41],8.62 µM
same,GI50,[42],0.27 µM
same,GI50,[43],2.07 µM
same,GI50,[44],0.31 µM
same,GI50,[45],< 0.03 µM
same,GI50,[46],0.15 µM
same,GI50,[47],0.35 µM
same,GI50,[48],0.08 µM
same,GI50,[49],0.11 µM
same,GI50,[50],0.2 µM
same,GI50,[51],1.03 µM
same,GI50,[52],1.62 µM
same,GI50,[53],1.13 µM
same,GI50,[54],1.33 µM
same,GI50,[55],0.61 µM
